From patent US3981814A, “Bacteriostatic substituted benzanilide compositions and methods for their use” (Givaudan Corporation, priority 1975, dated 1976) come the findings set out here.

Values after ≈ are worked out from the molar mass of the structure shown.

What is called LD50 is the dose at which mortality reaches 50%. A high value points to a less toxic substance.

The nature of data set [1]: Solubility in alcohol and other solvents. Format: physicochemical.
The next data set deals with Staphylococcus aureus. As to the kind of experiment: In vitro soap bacteriostatic test (agar dilution, spot inoculation, 35°, 48 hours). Type of data set: cell-based. Conditions: for MIC: Staphylococcus aureus, without soap, read-out: Compound Activity Without Soap: minimum concentration where S. aureus growth is completely inhibited; for Compound Activity With Soap: minimum concentration where S. aureus growth is completely inhibited: ratio of soap to compound 100:1. Here is the method: The antibacterial properties of the compounds prepared in Examples 1 - 14 were tested in soap. The in vitro soap bacteriostatic tests were conducted as follows: The compound is dissolved in a suitable solvent, usually dimethylformamide, to give a 6% solution. One-half ml. aliquot was added to 100 ml. of 3% solution of bar soap stock solution. The solid soap used was a neutral white toilet soap of the "LUX" type. The fatty acids in this soap were of the following composition: This yields an aqueous soap solution containing 30,000 mcg./ml. soap and 300 mcg./ml. compound. The soap/compound ratio in the latter is 100/l. A two-fold serial dilution series is prepared with this solution using sterile distilled water in test tubes such that the final volume in each tube is 2.0 ml. To each test tube is added 28 ml. of molten Dextrose Trypticase Extract Agar (B.B.L.). The tube contents were poured into sterile Petri plates and allowed to harden. The highest final concentration of compound in the serial dilution series is 20 mcg./ml. Plates were spot inoculated with a broth culture of Staphylococcus aureus and incubated at 35° for 48 hours. The lowest concentration completely inhibiting growth of the test organism, in mcg./ml. is recorded as the bacteriostatic concentration of the compound. Tests in the absence of soap are made in a similar manner except that all dilutions are made in solvent. The final concentration in the agar should not be greater than 5%. The results of these tests with the compounds of the present invention as compared with compounds having chemical structures closely related to the compounds of the present invention (designated by the symbol "C") are set forth in the Table. Column 1 contains the data as to the activity of the test solution without soap; column 2 refers to tests in which the ratio of soap to compound is 100:1. […] Growth is observed at the next lower concentration.
A general note: In agar dilution, organisms are placed on agar that contains the substance at set levels.

The next data set can be described thus: in vivo. The following applies: rat, determined in rats, oral toxicity. The source says:
For example, 4-chloro-3', 5'-di(trifluoromethyl)-benzanilide has an LD50 of […], determined in rats.

With `O=C(Nc1cc(C(F)(F)F)cc(C(F)(F)F)c1)c1ccc(Br)cc1` [Compound 20, 4-bromo-α,α,α,α',α',α' -hexafluorobenzo-3',5'-xylidide], the “solubility in alcohol solvents” value in data set [1] was “soluble or fairly soluble”. Moreover, in the data set on Staphylococcus aureus, the MIC worked out at 0.312 µg/mL (≈ 0.757 µM) and the “Compound Activity With Soap: minimum concentration where S. aureus growth is completely inhibited” value amounted to 0.312 µg/mL.
For `O=C(Nc1ccc(Br)c(C(F)(F)F)c1)c1ccc(Br)cc1` [Compound 13, 4,4'-dibromo-α,α,α-trifluoro-m-benzotoluidide], the “solubility in alcohol solvents” value in data set [1] is given as “soluble or fairly soluble”. Further, in the data set with Staphylococcus aureus, the MIC stood at 1.25 µg/mL (≈ 2.95 µM) and the “Compound Activity With Soap: minimum concentration where S. aureus growth is completely inhibited” value is 0.312 µg/mL.
For `O=C(Nc1cc(C(F)(F)F)cc(C(F)(F)F)c1)c1ccc(Cl)cc1` [Compound 19, 4-chloro-3',5'-di(trifluoromethyl)-benzanilide], the “solubility in alcohol solvents” value in data set [1] was “soluble or fairly soluble”. Besides, in the data set “in vivo”, the 50% lethal dose (LD50) worked out at 6000 mg/kg. In addition, in the data set on Staphylococcus aureus, the MIC worked out at 0.625 µg/mL (≈ 1.7 µM) and the “Compound Activity With Soap: minimum concentration where S. aureus growth is completely inhibited” value amounted to 0.312 µg/mL.
Regarding `CC(C)(C)c1ccc(C(=O)Nc2ccc(Cl)c(C(F)(F)F)c2)cc1` [Compound 22], in the data set with Staphylococcus aureus, the MIC is > 20 µg/mL and the “Compound Activity With Soap: minimum concentration where S. aureus growth is completely inhibited” value was 2.5 µg/mL.
With `O=C(Nc1ccc(Cl)c(C(F)(F)F)c1)c1ccccc1Cl` [Compound C12], in the data set with Staphylococcus aureus, the MIC was > 20 µg/mL and the “Compound Activity With Soap: minimum concentration where S. aureus growth is completely inhibited” value was 10.0 µg/mL.
Consider `O=C(Nc1cc(C(F)(F)F)ccc1Cl)c1ccc(Cl)cc1` [Compound C15], for which, in the data set on Staphylococcus aureus, the MIC is > 10 µg/mL and the “Compound Activity With Soap: minimum concentration where S. aureus growth is completely inhibited” value is “B (Inactive at 10 mcg./ml. (highest concentration tested))”.
For `O=C(Nc1ccc(Cl)c(C(F)(F)F)c1)c1cc(Cl)cc(Cl)c1` [Compound C11] the same measures were > 10 µg/mL and “B (Inactive at 10 mcg./ml. (highest concentration tested))”.
For `O=C(Nc1cccc(C(F)(F)F)c1)c1cccc(C(F)(F)F)c1` [Compound C4], in that order: > 20 µg/mL and 10.0 µg/mL.
For `O=C(Nc1ccc(Cl)c(C(F)(F)F)c1)c1ccc(C(F)(F)F)cc1` [Compound 7, 4'-Chloro-α,α,α,α',α ',α ', -hexafluoro-p-tolu-m-toluidide] the same measures were 0.625 µg/mL (≈ 1.7 µM) and 0.312 µg/mL.
Take `O=C(Nc1ccc(Br)c(C(F)(F)F)c1)c1cccc(Br)c1` [Compound 14, 3,4'-dibromo-α,α,α-trifluoro-m-benzotoluidide]: in the data set with Staphylococcus aureus, the MIC was > 20 µg/mL and the “Compound Activity With Soap: minimum concentration where S. aureus growth is completely inhibited” value is 1.25 µg/mL.
For `O=C(Nc1cc(C(F)(F)F)cc(C(F)(F)F)c1)c1cccc(Cl)c1` [Compound C25] the same measures were > 20 µg/mL and 10.0 µg/mL.
For `O=C(Nc1cc(C(F)(F)F)ccc1Cl)c1ccc(F)cc1` [Compound C18], in that order: > 10 µg/mL and “B (Inactive at 10 mcg./ml. (highest concentration tested))”.
For `O=C(Nc1cccc(C(F)(F)F)c1)c1ccccc1Br` [Compound C2], in that order: > 10 µg/mL and “B (Inactive at 10 mcg./ml. (highest concentration tested))”.
For `O=C(Nc1cccc(C(F)(F)F)c1)c1cccc(Cl)c1` [Compound 2], in the data set on Staphylococcus aureus, the MIC was > 20 µg/mL and the “Compound Activity With Soap: minimum concentration where S. aureus growth is completely inhibited” value is 2.5 µg/mL.
For `N#CSc1ccc(NC(=O)c2ccc(Cl)cc2)cc1C(F)(F)F` [Compound C23], in the data set with Staphylococcus aureus, the MIC was > 20 µg/mL and the “Compound Activity With Soap: minimum concentration where S. aureus growth is completely inhibited” value worked out at 5.0 µg/mL.
As to `O=C(Nc1cc(C(F)(F)F)cc(C(F)(F)F)c1)c1cccc(C(F)(F)F)c1` [Compound C28], in the data set with Staphylococcus aureus, the MIC was > 10 µg/mL and the “Compound Activity With Soap: minimum concentration where S. aureus growth is completely inhibited” value is “B (Inactive at 10 mcg./ml. (highest concentration tested))”.
Regarding `O=C(Nc1ccc(Cl)c(C(F)(F)F)c1)c1ccc(Cl)c(Cl)c1` [Compound 12], in the data set on Staphylococcus aureus, the MIC was > 20 µg/mL and the “Compound Activity With Soap: minimum concentration where S. aureus growth is completely inhibited” value was 0.312 µg/mL.
In the case of `O=C(Nc1cccc(Cl)c1)c1ccc(Cl)cc1` [Compound C30], in the data set with Staphylococcus aureus, the MIC was > 20 µg/mL and the “Compound Activity With Soap: minimum concentration where S. aureus growth is completely inhibited” value was determined as 5.0 µg/mL.
For `O=C(Nc1cccc(C(F)(F)F)c1)c1ccc(F)cc1` [Compound C3] the same measures were > 20 µg/mL and 10.0 µg/mL.
On to `O=C(Nc1cccc(Cl)c1)c1ccc(Cl)c(Cl)c1` [Compound C34], for which, in the data set with Staphylococcus aureus, the MIC is > 20 µg/mL and the “Compound Activity With Soap: minimum concentration where S. aureus growth is completely inhibited” value is on record as “A (Inactive at 20 mcg./ml. (highest concentration tested))”.
As for `O=C(Nc1cc(C(F)(F)F)cc(C(F)(F)F)c1)c1ccccc1Cl` [Compound C26], in the data set with Staphylococcus aureus, the MIC is > 20 µg/mL and the “Compound Activity With Soap: minimum concentration where S. aureus growth is completely inhibited” value came out at 10.0 µg/mL.
